Experimental data: ChEMBL document CHEMBL1144546, “Design and synthesis of rho kinase inhibitors (III)” (Bioorg Med Chem, 2007)

How the values were obtained:
[1] = molecular target: T1, Rho-associated protein kinase (Homo sapiens, UniProt O75116+Q13464)
[2] = molecular target: Rho-associated protein kinase 2 (Rattus norvegicus) (UniProt Q62868); test: Ex vivo inhibition of Rho kinase activity in Sprague-Dawley rat serum at 30 mg/kg, po after 8 hrs; assay type: organism-based; design: dose 30 mg/kg; scale not given: the % may be the effect or the level left
[3] = molecular target: Rho-associated protein kinase 2 (Rattus norvegicus) (UniProt Q62868); test: Ex vivo inhibition of Rho kinase activity in Sprague-Dawley rat serum at 30 mg/kg, po after 1 hrs; assay type: organism-based; design: dose 30 mg/kg; scale not given: the % may be the effect or the level left
[4] = molecular target: T1, Rho-associated protein kinase; test: Inhibition of TPA-induced Rho kinase dependent MBS phosphorylation in MDCK 2 cells; assay type: functional, cell-based; settings: Canis lupus familiaris
[5] = molecular target: Rho-associated protein kinase 2 (Rattus norvegicus) (UniProt Q62868); test: Ex vivo inhibition of Rho kinase activity in Sprague-Dawley rat serum at 30 mg/kg, po after 4 hrs; assay type: organism-based; design: dose 30 mg/kg; scale not given: the % may be the effect or the level left
[6] = Metabolic stability in rat liver microsome at 10 uM after 30 mins; settings: liver microsomes
[7] = Inhibition of MCP1-induced chemotaxis in U937 cells overexpressing CCR2; settings: u-937

Rho-associated protein kinase 2 (Rattus norvegicus), sequence (Q62868 whole entry, looked up): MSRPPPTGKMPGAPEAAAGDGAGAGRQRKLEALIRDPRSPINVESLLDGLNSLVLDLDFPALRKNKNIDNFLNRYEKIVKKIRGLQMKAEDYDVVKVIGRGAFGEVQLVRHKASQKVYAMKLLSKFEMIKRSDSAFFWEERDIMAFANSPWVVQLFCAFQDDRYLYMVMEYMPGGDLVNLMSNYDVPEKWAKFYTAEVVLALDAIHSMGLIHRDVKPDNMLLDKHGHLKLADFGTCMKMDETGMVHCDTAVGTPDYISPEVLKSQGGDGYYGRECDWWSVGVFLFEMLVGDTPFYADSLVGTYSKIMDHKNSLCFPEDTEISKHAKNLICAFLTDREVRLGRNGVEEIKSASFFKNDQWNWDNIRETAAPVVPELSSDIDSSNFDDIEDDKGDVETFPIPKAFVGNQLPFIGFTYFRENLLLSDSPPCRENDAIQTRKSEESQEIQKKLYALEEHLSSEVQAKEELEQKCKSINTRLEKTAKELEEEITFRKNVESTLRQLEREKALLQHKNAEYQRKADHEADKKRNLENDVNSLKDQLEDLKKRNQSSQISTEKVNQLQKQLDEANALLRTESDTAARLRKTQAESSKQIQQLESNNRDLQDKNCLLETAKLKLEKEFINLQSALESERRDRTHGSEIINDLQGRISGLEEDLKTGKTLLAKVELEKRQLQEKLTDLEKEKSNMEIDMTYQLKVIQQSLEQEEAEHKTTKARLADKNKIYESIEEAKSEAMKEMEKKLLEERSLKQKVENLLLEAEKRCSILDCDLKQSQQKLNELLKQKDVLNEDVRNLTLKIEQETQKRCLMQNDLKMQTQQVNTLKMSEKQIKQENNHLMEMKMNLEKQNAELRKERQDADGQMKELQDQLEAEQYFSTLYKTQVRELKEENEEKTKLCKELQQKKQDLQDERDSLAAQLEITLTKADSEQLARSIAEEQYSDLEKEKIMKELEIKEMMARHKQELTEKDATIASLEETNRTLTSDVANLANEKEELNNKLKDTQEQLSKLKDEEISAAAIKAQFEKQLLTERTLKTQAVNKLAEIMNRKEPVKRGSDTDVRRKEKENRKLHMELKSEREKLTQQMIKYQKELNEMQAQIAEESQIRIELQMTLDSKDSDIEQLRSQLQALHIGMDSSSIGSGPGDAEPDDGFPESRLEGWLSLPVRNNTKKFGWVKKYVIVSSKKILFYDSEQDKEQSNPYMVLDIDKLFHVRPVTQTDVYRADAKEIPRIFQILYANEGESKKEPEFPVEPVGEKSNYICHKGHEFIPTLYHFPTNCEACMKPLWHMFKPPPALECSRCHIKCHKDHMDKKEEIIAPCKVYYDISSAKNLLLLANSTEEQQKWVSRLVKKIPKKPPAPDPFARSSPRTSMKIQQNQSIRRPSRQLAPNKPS
T1 sequence (O75116 whole entry, looked up): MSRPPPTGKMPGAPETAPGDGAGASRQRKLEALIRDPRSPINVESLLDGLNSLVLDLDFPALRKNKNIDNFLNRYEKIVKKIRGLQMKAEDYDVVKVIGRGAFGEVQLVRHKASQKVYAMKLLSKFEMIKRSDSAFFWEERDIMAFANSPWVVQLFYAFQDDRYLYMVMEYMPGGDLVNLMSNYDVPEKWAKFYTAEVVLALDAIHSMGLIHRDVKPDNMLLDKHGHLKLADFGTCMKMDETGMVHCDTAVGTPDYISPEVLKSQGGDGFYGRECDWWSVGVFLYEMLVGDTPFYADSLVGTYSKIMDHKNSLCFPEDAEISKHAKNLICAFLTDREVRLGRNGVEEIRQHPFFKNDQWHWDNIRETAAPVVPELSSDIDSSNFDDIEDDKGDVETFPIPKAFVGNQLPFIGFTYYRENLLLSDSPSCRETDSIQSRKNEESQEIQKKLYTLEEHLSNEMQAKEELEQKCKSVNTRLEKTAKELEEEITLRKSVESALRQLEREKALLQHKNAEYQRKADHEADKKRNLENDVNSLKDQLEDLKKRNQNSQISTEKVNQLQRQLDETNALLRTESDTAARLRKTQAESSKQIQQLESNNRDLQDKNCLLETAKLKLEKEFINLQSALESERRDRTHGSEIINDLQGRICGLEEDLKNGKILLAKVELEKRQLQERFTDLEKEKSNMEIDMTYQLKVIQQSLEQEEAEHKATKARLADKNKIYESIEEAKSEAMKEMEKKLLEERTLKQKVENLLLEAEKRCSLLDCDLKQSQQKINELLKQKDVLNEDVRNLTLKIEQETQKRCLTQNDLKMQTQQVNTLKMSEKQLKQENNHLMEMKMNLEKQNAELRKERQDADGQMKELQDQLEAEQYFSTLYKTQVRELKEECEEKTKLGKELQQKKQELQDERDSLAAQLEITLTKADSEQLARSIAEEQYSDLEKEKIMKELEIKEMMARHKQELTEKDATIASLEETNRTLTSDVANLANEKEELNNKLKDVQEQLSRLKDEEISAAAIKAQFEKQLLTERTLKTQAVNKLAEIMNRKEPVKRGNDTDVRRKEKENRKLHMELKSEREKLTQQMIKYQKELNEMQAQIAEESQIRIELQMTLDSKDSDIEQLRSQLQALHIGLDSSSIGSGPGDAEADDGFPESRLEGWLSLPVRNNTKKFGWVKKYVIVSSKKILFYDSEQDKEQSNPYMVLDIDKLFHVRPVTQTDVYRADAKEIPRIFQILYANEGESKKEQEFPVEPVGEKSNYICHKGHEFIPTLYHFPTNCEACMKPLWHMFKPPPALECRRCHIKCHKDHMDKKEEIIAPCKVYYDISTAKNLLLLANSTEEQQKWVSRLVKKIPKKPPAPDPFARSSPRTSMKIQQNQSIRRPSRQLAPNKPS
T1 sequence (Q13464 whole entry, looked up): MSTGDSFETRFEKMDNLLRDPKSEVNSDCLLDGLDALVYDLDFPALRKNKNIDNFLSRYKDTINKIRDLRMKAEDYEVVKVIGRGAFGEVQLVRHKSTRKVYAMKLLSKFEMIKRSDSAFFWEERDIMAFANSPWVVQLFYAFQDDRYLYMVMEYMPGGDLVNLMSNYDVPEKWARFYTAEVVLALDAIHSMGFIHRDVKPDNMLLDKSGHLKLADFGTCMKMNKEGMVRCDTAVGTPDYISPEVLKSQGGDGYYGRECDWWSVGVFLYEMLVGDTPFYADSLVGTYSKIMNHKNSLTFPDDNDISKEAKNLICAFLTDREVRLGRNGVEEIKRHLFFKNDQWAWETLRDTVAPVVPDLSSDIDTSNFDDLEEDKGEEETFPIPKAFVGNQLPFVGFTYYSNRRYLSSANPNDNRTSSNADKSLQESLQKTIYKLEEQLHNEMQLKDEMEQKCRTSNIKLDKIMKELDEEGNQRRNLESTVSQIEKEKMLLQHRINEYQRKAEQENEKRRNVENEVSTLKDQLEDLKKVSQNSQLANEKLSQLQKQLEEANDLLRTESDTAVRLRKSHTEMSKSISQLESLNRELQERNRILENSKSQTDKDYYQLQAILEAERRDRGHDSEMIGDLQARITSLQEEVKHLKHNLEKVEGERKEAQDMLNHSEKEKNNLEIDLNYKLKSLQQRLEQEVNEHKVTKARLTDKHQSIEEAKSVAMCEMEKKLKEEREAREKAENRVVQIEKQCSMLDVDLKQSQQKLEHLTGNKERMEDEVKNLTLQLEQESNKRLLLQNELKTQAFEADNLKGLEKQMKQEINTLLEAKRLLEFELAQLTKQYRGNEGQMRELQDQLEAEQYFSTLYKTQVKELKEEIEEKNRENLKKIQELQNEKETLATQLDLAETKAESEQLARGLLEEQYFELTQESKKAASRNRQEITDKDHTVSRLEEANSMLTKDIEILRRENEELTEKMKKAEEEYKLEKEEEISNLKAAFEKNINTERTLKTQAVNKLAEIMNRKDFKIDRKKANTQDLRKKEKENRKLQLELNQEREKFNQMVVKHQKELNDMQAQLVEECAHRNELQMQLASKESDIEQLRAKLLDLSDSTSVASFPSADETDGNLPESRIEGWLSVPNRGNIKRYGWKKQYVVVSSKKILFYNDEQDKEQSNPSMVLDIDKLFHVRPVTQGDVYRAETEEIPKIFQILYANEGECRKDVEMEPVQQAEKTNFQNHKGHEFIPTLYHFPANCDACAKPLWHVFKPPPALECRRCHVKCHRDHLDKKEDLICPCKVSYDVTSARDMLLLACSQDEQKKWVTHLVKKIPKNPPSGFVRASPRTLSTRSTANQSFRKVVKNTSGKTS

Row | SMILES | IC50 [1] [nM] | other results
1 | c1cc(N[C@H]2CC[C@@H](NC3CC3)CC2)c2ccncc2c1 | 195 | 
2 | CC(C)CCN1CCCC(Nc2cccc3cnccc23)C1 (stereo unspecified) | 270 | 
3 | CCCN[C@H]1CC[C@@H](Nc2cccc3cnccc23)CC1 | 180 | 
4 | Nc1cccc(CN2CC[C@@H](Nc3cccc4cnccc34)C2)c1 | 25 | Activity [2]: 26%; Activity [3]: 52%; Activity [4]: Dose-dependent effect; Activity [5]: 42%
5 | c1ccc(CN2CCC(Nc3cccc4cnccc34)CC2)cc1 | 140 | 
6 | Clc1ccc(CN2CCC(Nc3cccc4cnccc34)C2)cc1 (stereo unspecified) | 65 | 
7 | CCCN[C@H]1CC[C@H](Nc2cccc3cnccc23)CC1 | 180 | 
8 | CC(C)CN1CCC(Nc2cccc3cnccc23)CC1 | 210 | 
9 | Nc1cccc(CN2CC[C@H](Nc3cccc4cnccc34)C2)c1 | 310 | Activity [2]: 0%; Activity [3]: 30%; Activity [5]: 17%
10 | c1ccc(CCN[C@H]2CC[C@@H](Nc3cccc4cnccc34)CC2)cc1 | 580 | 
11 | Clc1cccc(CN2CCCC(Nc3cccc4cnccc34)C2)c1 (stereo unspecified) | 265 | 
12 | Clc1ccccc1CN1CCC(Nc2cccc3cnccc23)C1 (stereo unspecified) | 100 | 
13 | Fc1ccc(CN2CCC(Nc3cccc4cnccc34)C2)cc1 (stereo unspecified) | 95 | 
14 | Nc1cccc(CN2CCC(Nc3cccc4cnccc34)C2)c1 (stereo unspecified) | 275 | remaining at 0.5 h, 10 µM [6]: 67%
15 | CCCN1CCC(Nc2cccc3cnccc23)CC1 | 345 | 
16 | O=S(=O)(c1cccc2cnccc12)N1CCCNCC1 [FASUDIL] |  | IC50 [7]: 35000 nM

More lines, main results first:

Row | IC50 [1] [nM] | SMILES | other results
17 | 440 | c1ccc(CCN[C@H]2CC[C@H](Nc3cccc4cnccc34)CC2)cc1 | 
18 | 65 | Clc1cccc(CN2CCC(Nc3cccc4cnccc34)C2)c1 (stereo unspecified) | 
19 | 75 | Fc1cccc(F)c1CN1CCC(Nc2cccc3cnccc23)C1 (stereo unspecified) | 
20 | 210 | Clc1ccccc1CN1CCCC(Nc2cccc3cnccc23)C1 (stereo unspecified) | 
21 | 205 | Nc1ccccc1CN1CCC(Nc2cccc3cnccc23)C1 (stereo unspecified) | 
22 | 70 | c1cc(N[C@H]2CC[C@H](NC3CC3)CC2)c2ccncc2c1 | 
23 | 235 | Nc1ccc(CN2CCC(Nc3cccc4cnccc34)C2)cc1 (stereo unspecified) | 
